Experimental data taken from publication PMC6008491, “Discovery of a novel allosteric inhibitor scaffold for polyadenosine-diphosphate-ribose polymerase 14 (PARP14) macrodomain 2” (Bioorganic & Medicinal Chemistry, 2018).

target: T1, PARP14 MD2 (Homo sapiens, UniProt Q460N5); test: AlphaScreen competitive binding assay, displacement of ADP-ribose peptide from PARP14 MD2; set-up: PARP14 MD2 (second MD of PARP14); conditions: not given
T1 sequence (Q460N5 1003-1190 limits assumed): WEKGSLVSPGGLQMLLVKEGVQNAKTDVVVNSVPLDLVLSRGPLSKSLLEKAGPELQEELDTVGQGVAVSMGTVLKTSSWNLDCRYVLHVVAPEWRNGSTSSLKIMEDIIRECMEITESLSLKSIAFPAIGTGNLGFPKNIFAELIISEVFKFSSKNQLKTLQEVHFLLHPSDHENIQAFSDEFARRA
From the text: Compounds were profiled for binding activity with PARP14 MD2 through a competitive (AlphaScreen™) binding assay measuring the displacement of ADP-ribose peptide from PARP14 MD2.[11a]

| inhibition of PARP14 MD2 (in words) | Compound |
| --- | --- |
| completely inactive | CC(=O)Nc1ccccc1-c1ccccc1Nc1ccccc1 [compound 31, N-[2'-(Phenylamino)-(1,1'-biphenyl)-2-yl]acetamide] |
| complete loss of activity | CC(Nc1ccccc1-c1cccc2c1[nH]c1ccccc12)C(F)(F)F (racemic) [compound 51, (±)-2-(9H-Carbazol-1-yl)-N-(1,1,1-trifluoropropan-2-yl)aniline] |

same assay, conditions: Table 1; AlphaScreen, PARP14 MD2; read-out: IC50

| Compound | IC50 |
| --- | --- |
| COc1ccc(C(=O)Nc2ccccc2-c2cccc3c2[nH]c2ccccc23)cc1 [compound 82, N-(2-(9H-Carbazol-1-yl)phenyl)-4-methoxybenzamide] | 9 ± 1.4 µM |
| Cc1ccc(-c2cccc3c2[nH]c2ccccc23)c(N)c1 [compound 59, 2-(9H-Carbazol-1-yl)-5-methylaniline] | > 50 µM |
| Cc1cccc(N)c1-c1cccc2c1[nH]c1ccccc12 [compound 61, 2-(9H-Carbazol-1-yl)-3-methylaniline] | > 50 µM |
| O=C(Cc1ccccc1)Nc1ccccc1-c1cccc2c1[nH]c1ccccc12 [compound 78, N-(2-(9H-Carbazol-1-yl)phenyl)-2-phenylacetamide] | 7.6 ± 0.3 µM |

More lines, now with the values ahead:

| IC50 | Compound |
| --- | --- |
| > 50 µM | O=S(=O)(Nc1ccccc1-c1cccc2c1[nH]c1ccccc12)c1ccccc1 [compound 72, N-(2-(9H-Carbazol-1-yl)phenyl)benzenesulfonamide] |
| > 50 µM | O=C(Nc1ccccc1-c1cccc2c1[nH]c1ccccc12)c1ccco1 [compound 76, N-(2-(9H-carbazol-1-yl)phenyl)furan-2-carboxamide] |
| 1.2 ± 0.03 µM | CCS(=O)(=O)Nc1ccccc1-c1cccc2c1[nH]c1ccccc12 [compound 62, N-(2-(9H-carbazol-1-yl)phenyl)ethanesulfonamide] |
| 1.1 ± 0.07 µM | O=C(Nc1ccccc1-c1cccc2c1[nH]c1ccccc12)C(F)(F)F [compound 73, N-(2-(9H-carbazol-1-yl)phenyl)-2,2,2-trifluoroacetamide] |
| 1.1 ± 0.1 µM | Cc1ccc(-c2cccc3c2[nH]c2ccccc23)c(NS(C)(=O)=O)c1 [compound 55, N-(2-(9H-Carbazol-1-yl)-5-methylphenyl)methanesulfonamide] |
| > 50 µM | CC(=O)Nc1cnccc1-c1cccc2c1[nH]c1ccccc12 [compound 17] |
| 8.6 ± 0.4 µM | COCCS(=O)(=O)Nc1ccccc1-c1cccc2c1[nH]c1ccccc12 [compound 69, N-(2-(9H-Carbazol-1-yl)phenyl)-2-methoxyethane-1-sulfonamide] |
| 1 ± 0.03 µM | CCC(=O)Nc1ccccc1-c1cccc2c1[nH]c1ccccc12 [compound 66, N-(2-(9H-carbazol-1-yl)phenyl)propionamide] |
| 7.2 ± 1.4 µM | CC(C)(C)NC(=O)Nc1ccccc1-c1cccc2c1[nH]c1ccccc12 [compound 49, 1-[2-(9H-Carbazol-1-yl)phenyl]-3-(tert-butyl)urea] |
| > 50 µM | CCCCC(=O)Nc1ccccc1-c1cccc2c1[nH]c1ccccc12 [compound 68, N-(2-(9H-carbazol-1-yl)phenyl)pentanamide] |
| > 50 µM | CCNc1ccccc1-c1cccc2c1[nH]c1ccccc12 [compound 53, 2-(9H-Carbazol-1-yl)-N-ethylaniline] |
| > 50 µM | O=C(Nc1ccccc1-c1cccc2c1[nH]c1ccccc12)C1CCCCC1 [compound 75, N-(2-(9H-carbazol-1-yl)phenyl)cyclohexanecarboxamide] |
| 1.2 ± 0.03 µM | O=C(Nc1ccccc1-c1cccc2c1[nH]c1ccccc12)C1CC1 [compound 74, N-(2-(9H-carbazol-1-yl)phenyl)cyclopropanecarboxamide] |
| > 50 µM | CS(=O)(=O)Nc1ccc(C(F)(F)F)cc1-c1cccc2c1[nH]c1ccccc12 [compound 58, N-(2-(9H-Carbazol-1-yl)-4-(trifluoromethyl)phenyl)methanesulfonamide] |
| 2.5 ± 0.1 µM | CN(C)S(=O)(=O)Nc1ccccc1-c1cccc2c1[nH]c1ccccc12 [compound 71, N1-(2-(9H-Carbazol-1-yl)phenyl)-N2,N2-dimethylsulfamide] |
| > 50 µM | Cc1oncc1S(=O)(=O)Nc1ccccc1-c1cccc2c1[nH]c1ccccc12 [compound 70, N-(2-(9H-Carbazol-1-yl)phenyl)-5-methylisoxazole-4-sulfonamide] |
| 10.5 ± 0.4 µM | CC(=S)Nc1ccccc1-c1cccc2c1[nH]c1ccccc12 [compound 52, N-[2-(9H-Carbazol-1-yl)phenyl]thioacetamide] |

same assay, conditions: Table 2; AlphaScreen, PARP14 MD2; read-out: IC50

| Compound | IC50 |
| --- | --- |
| COc1ccc(CC(=O)Nc2ccccc2-c2cccc3c2[nH]c2ccccc23)cc1 [compound 94, N-(2-(9H-Carbazol-1-yl)phenyl)-2-(4-methoxyphenyl)acetamide] | 6.2 ± 0.6 µM |
| Cc1ccc(CC(=O)Nc2ccccc2-c2cccc3c2[nH]c2ccccc23)cc1 [compound 92, N-(2-(9H-Carbazol-1-yl)phenyl)-2-(p-tolyl)acetamide] | 8.7 ± 1.2 µM |
| N#Cc1cc(CC(=O)Nc2ccccc2-c2cccc3c2[nH]c2ccccc23)ccn1 [compound 86, N-(2-(9H-Carbazol-1-yl)phenyl)-2-(2-cyanopyridin-4-yl)acetamide] | 2.4 ± 0.2 µM |
| COc1ccc(CC(=O)Nc2ccccc2-c2cccc3c2[nH]c2ccccc23)cc1OC [compound 98, N-(2-(9H-Carbazol-1-yl)phenyl)-2-(3,4-dimethoxyphenyl)acetamide] | 4.3 ± 0.3 µM |
| O=C(Cc1cccc(C(F)(F)F)c1)Nc1ccccc1-c1cccc2c1[nH]c1ccccc12 [compound 106, N-(2-(9H-Carbazol-1-yl)phenyl)-2-(3-(trifluoromethyl)phenyl)acetamide] | 7.1 ± 0.7 µM |
| O=C(Cc1ccccc1Cl)Nc1ccccc1-c1cccc2c1[nH]c1ccccc12 [compound 91, N-(2-(9H-Carbazol-1-yl)phenyl)-2-(2-chlorophenyl)acetamide] | 4.4 ± 0.3 µM |
| N#Cc1ccc(CC(=O)Nc2ccccc2-c2cccc3c2[nH]c2ccccc23)cn1 [compound 87, N-(2-(9H-Carbazol-1-yl)phenyl)-2-(6-cyanopyridin-3-yl)acetamide] | 3.5 ± 0.2 µM |
| O=C(Cc1ccc(Cl)cc1)Nc1ccccc1-c1cccc2c1[nH]c1ccccc12 [compound 96, N-(2-(9H-Carbazol-1-yl)phenyl)-2-(4-chlorophenyl)acetamide] | 6.2 ± 0.6 µM |
| O=C(Cc1ccc(F)cc1)Nc1ccccc1-c1cccc2c1[nH]c1ccccc12 [compound 93, N-(2-(9H-Carbazol-1-yl)phenyl)-2-(4-fluorophenyl)acetamide] | > 50 µM |
| Cc1ccc(C)c(CC(=O)Nc2ccccc2-c2cccc3c2[nH]c2ccccc23)c1 [compound 101, N-(2-(9H-Carbazol-1-yl)phenyl)-2-(2,5-dimethylphenyl)acetamide] | 44.6 ± 10.4 µM |
| N#Cc1cccc(CC(=O)Nc2ccccc2-c2cccc3c2[nH]c2ccccc23)c1 [compound 107, N-(2-(9H-Carbazol-1-yl)phenyl)-2-(3-cyanophenyl)acetamide] | 2.1 ± 0.1 µM |
| COc1cccc(CC(=O)Nc2ccccc2-c2cccc3c2[nH]c2ccccc23)c1 [compound 103, N-(2-(9H-Carbazol-1-yl)phenyl)-2-(3-methoxyphenyl)acetamide] | 6.6 ± 0.5 µM |
| O=C(Cc1ccc(=O)[nH]c1)Nc1ccccc1-c1cccc2c1[nH]c1ccccc12 [compound 88, N-(2-(9H-Carbazol-1-yl)phenyl)-2-(6-oxo-1,6-dihydropyridin-3-yl)acetamide] | 6.6 ± 0.4 µM |

The next lines start with the values.

| IC50 | Compound |
| --- | --- |
| 6.2 ± 0.6 µM | N#Cc1ccc(CS(=O)(=O)Nc2ccccc2-c2cccc3c2[nH]c2ccccc23)cc1 [compound 95, N-(2-(9H-Carbazol-1-yl)phenyl)-1-(4-cyanophenyl)methanesulfonamide] |
| 8.1 ± 0.7 µM | O=S(=O)(Cc1ccc(C(F)(F)F)cc1)Nc1ccccc1-c1cccc2c1[nH]c1ccccc12 [compound 97, N-(2-(9H-Carbazol-1-yl)phenyl)-1-(4-(trifluoromethyl)phenyl)methanesulfonamide] |
| 2.4 ± 0.1 µM | O=S(=O)(Cc1ccccc1F)Nc1ccccc1-c1cccc2c1[nH]c1ccccc12 [compound 89, N-(2-(9H-Carbazol-1-yl)phenyl)-1-(2-fluorophenyl)methanesulfonamide] |

same assay, conditions: text and figures; read-out: PARP14 MD2 IC50

| IC50 | Compound |
| --- | --- |
| > 50 µM | CC(=O)Nc1ccccc1-c1cccc2c1oc1ccccc12 [compound 26, N-[2-(Dibenzofuran-4-yl)phenyl]acetamide] |
| 1.1 µM | CC(=O)Nc1ccccc1-c1cccc2c3c([nH]c12)CCCC3 [compound 44, N-[2-(5,6,7,8-Tetrahydro-9H-carbazol-1-yl)phenyl]acetamide] |
| > 50 µM | CC(=O)Nc1ccccc1-c1cccc2c3ccccc3n(Cc3ccccc3)c12 [compound 25, N-[2-(9-Benzyl-9H-carbazol-1-yl)phenyl]acetamide] |
| > 50 µM | CC(=O)Nc1ccccc1-c1cccc2c1C(=O)c1ccccc1-2 [compound 28, N-[2-(9-Oxo-9H-fluoren-1-yl)phenyl]acetamide] |
| > 50 µM | CC(=O)Nc1cccnc1-c1cccc2c1[nH]c1ccccc12 [compound 16, N-[2-(9H-Carbazol-1-yl)pyridin-3-yl]acetamide] |
| > 50 µM | CC(=O)Nc1ccccc1-c1cccc2c3ccccc3n(C)c12 [compound 24, N-[2-(9-Methyl-9H-carbazol-1-yl)phenyl]acetamide] |
| 1.4 µM | CC(=O)Nc1ccccc1-c1cccc2c1[nH]c1c(Cl)c(Cl)ccc12 [compound 37, N-[2-(7,8-Dichloro-9H-carbazol-1-yl)phenyl]acetamide] |
| 30 µM | CC(=O)Nc1ccccc1-c1nccc2c1[nH]c1ccccc12 [compound 18] |
| > 50 µM | CC(=O)Nc1ccccc1-c1cn2c3ccccc3c3ccnc(c1=O)c32 [compound 19] |
| > 50 µM | CC(=O)Nc1ccccc1-c1cccc2c1C(O)c1ccccc1-2 (centres unmarked) [compound 29, N-[2-(9-Hydroxy-9H-fluoren-1-yl)phenyl]acetamide] |
| > 50 µM | CC(=O)Nc1ccncc1-c1cccc2c1[nH]c1ccccc12 [compound 15] |
